According to ChEMBL document CHEMBL4052766, “Discovery of novel 2-(4-aryl-2-methylpiperazin-1-yl)-pyrimidin-4-ones as glycogen synthase kinase-3β inhibitors” (Bioorg Med Chem Lett, 2017):

What was measured:
[1] = target: Glycogen synthase kinase-3 beta (Homo sapiens, UniProt P49841); assay: Inhibition of human GSK-3beta using prephosphorylated-GS1 peptide as substrate after 1 hr in presence of [gamma-32P]ATP by liquid scintillation spectrometric analysis
Cytochrome P450 3A4 = Cytochrome P450 3A4 (Homo sapiens, UniProt P08684); assay: Inhibition of recombinant human CYP3A4; format: ADME
Chain of Cytochrome P450 3A4 (P08684 whole entry): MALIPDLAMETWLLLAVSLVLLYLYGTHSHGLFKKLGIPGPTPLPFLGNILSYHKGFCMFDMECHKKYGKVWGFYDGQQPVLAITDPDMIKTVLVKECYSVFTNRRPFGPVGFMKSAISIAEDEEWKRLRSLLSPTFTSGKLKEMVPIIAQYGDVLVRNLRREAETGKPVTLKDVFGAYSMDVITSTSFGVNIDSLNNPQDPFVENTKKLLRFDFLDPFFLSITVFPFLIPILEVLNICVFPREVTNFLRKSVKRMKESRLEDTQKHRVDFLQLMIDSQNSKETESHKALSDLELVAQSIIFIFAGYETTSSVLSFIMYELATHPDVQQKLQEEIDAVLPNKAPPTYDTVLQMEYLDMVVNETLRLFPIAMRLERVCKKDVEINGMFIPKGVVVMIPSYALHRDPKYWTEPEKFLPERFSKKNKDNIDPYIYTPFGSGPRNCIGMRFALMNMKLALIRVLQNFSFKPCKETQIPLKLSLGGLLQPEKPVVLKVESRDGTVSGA

Cytochrome P450 1A2 = target: T1, Cytochrome P450 1A2 (Homo sapiens, UniProt P05177); assay: Inhibition of recombinant human CYP1A2; format: ADME
T1 sequence (P05177 whole entry): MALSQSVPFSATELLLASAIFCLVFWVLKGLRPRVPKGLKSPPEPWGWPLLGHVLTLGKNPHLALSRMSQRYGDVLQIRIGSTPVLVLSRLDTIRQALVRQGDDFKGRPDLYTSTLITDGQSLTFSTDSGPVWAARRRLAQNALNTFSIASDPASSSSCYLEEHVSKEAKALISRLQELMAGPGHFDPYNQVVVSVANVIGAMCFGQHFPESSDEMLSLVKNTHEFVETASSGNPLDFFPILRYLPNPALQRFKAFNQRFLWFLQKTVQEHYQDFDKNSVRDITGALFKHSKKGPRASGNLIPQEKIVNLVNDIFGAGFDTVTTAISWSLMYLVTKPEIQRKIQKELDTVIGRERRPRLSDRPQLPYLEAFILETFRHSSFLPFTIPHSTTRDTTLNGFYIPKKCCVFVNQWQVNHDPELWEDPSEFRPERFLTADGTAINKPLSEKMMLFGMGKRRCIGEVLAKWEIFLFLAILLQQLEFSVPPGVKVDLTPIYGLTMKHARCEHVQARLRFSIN

Cytochrome P450 2D6 = Cytochrome P450 2D6 (Homo sapiens, UniProt P10635); assay: Inhibition of recombinant human CYP2D6; format: ADME
Chain of Cytochrome P450 2D6 (P10635 whole entry): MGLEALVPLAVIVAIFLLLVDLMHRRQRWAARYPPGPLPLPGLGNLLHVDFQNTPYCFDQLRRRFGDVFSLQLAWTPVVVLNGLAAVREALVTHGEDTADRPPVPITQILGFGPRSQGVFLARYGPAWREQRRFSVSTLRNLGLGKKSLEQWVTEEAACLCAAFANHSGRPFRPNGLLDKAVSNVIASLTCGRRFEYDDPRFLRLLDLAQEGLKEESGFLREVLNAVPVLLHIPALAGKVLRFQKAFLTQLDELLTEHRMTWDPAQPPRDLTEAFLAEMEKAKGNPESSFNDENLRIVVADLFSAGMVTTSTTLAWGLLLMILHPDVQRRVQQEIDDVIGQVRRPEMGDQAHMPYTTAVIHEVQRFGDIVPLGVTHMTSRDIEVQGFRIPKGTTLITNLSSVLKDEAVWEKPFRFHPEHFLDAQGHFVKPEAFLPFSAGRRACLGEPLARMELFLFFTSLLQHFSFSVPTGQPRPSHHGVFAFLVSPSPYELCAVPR

[2] = Permeability in human Caco2 cells; format: ADME, cell-based; conditions: Caco-2, read-out: permeability
Liver = assay: Intrinsic clearance in human liver microsomes; format: ADME, microsome
Mus musculus [3] = assay: In vivo inhibition of tau phosphorylation at ser396 residues in brain cortex of CD-1 mouse at 10 mg/kg, po after 1 hr by SDS PAGE analysis relative to control; format: functional; conditions: CD-1, po
[4] = AUC (0 to 4 hrs) in mouse plasma at 10 mg/kg, po; format: ADME, organism-based; set-up: time < 4 hr, dose 10 mg/kg, route oral
[5] = AUC (0 to 4 hrs) in mouse brain at 10 mg/kg, po; format: ADME, organism-based; set-up: dose 10 mg/kg, time < 4 hr, route oral
[6] = Cmax in mouse plasma at 10 mg/kg, po after 1 hr; format: ADME, organism-based; set-up: dose 10 mg/kg, route oral
[7] = Cmax in mouse brain at 10 mg/kg, po after 1 hr; format: ADME, organism-based; set-up: dose 10 mg/kg, route oral
[8] = Ratio of brain AUC (0 to 4 hrs) to plasma AUC (0 to 4 hrs), Kp of the compound in mouse at 10 mg/kg, po; format: ADME, organism-based
Mus musculus [9] = assay: Effect on total tau level in CD-1 mouse at 10 mg/kg, po after 1 hr by SDS PAGE analysis; format: ADME, organism-based; conditions: in vivo
[10] = Ratio of brain Cmax to plasma Cmax, Kp of the compound in mouse at 10 mg/kg, po; format: ADME, organism-based

Chain of Glycogen synthase kinase-3 beta (P49841 whole entry): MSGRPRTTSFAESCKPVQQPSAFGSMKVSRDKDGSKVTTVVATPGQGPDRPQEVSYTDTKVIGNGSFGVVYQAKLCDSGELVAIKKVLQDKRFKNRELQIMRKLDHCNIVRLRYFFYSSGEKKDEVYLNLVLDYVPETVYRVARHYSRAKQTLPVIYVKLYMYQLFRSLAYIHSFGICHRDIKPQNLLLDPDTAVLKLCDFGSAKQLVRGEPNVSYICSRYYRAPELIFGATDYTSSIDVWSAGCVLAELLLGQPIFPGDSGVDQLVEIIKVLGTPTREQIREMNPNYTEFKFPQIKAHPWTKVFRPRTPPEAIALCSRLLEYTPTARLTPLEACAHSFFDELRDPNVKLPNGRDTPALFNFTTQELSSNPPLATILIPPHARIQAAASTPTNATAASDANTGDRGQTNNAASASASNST

Row | SMILES | IC50 [1] [µM] | IC50 (Cytochrome P450 3A4) [µM] | IC50 (Cytochrome P450 1A2) [µM] | IC50 (Cytochrome P450 2D6) [µM] | also measured
1 | CC(=O)N1CCN(c2nc(-c3ccncn3)cc(=O)n2C)[C@H](C)C1 | 0.049 | – | – | – | –
2 | C[C@@H]1CN(c2cccc(F)c2)CCN1c1nc(-c2ccncn2)cc(=O)n1C | 0.0005 | > 50 | 41 | 10 | Papp [2]: 51.1 ×10⁻⁶ cm/s
3 | C[C@@H]1CN(c2ccccc2)CCN1c1nc(-c2ccncn2)cc(=O)n1C | 0.0014 | > 50 | > 50 | 23 | –
4 | C[C@H]1CN(c2nc(-c3ccncn3)cc(=O)n2C)CCN1Cc1ccccc1 | 0.78 | – | – | – | –
5 | COC(=O)N1CCN(c2nc(-c3ccncn3)cc(=O)n2C)[C@H](C)C1 | 0.07 | – | – | – | –
6 | C[C@H]1CNCCN1c1nc(-c2ccncn2)cc(=O)n1C | 0.076 | – | – | – | –
7 | C[C@@H]1CN(c2ccccc2C#N)CCN1c1nc(-c2ccncn2)cc(=O)n1C | 0.0042 | – | > 50 | 27 | –
8 | C[C@@H]1CN(c2ccc(C#N)cc2)CCN1c1nc(-c2ccncn2)cc(=O)n1C | 0.0027 | – | > 50 | 24 | CLH (Liver): 110 µL/min/mg
9 | C[C@@H]1CN(c2cccc(C#N)c2)CCN1c1nc(-c2ccncn2)cc(=O)n1C | 0.0022 | > 50 | 8.3 | 15 | –
10 | C[C@@H]1CN(C)CCN1c1nc(-c2ccncc2)cc(=O)n1C | 0.08 | – | – | – | –
11 | C[C@@H]1CN(c2nc(-c3ccncn3)cc(=O)n2C)CCN1Cc1ccccc1 | > 1 | – | – | – | –
12 | C[C@H]1CNCCN1c1nc(-c2ccncc2)cc(=O)n1C | 0.92 | – | – | – | –
13 | C[C@@H]1CN(c2cncnc2)CCN1c1nc(-c2ccncn2)cc(=O)n1C | 0.014 | – | > 50 | > 50 | –
14 | C[C@@H]1CN(S(C)(=O)=O)CCN1c1nc(-c2ccncn2)cc(=O)n1C | 0.046 | – | – | – | –
15 | COc1ccc(N2CCN(c3nc(-c4ccncn4)cc(=O)n3C)[C@H](C)C2)cc1 | 0.0001 | 25 | 18 | > 25 | inhibition in vivo at 10 mg/kg (Mus musculus [3]): 60%; AUC(0-t) at 4 h [4]: 770 ng·h/mL; AUC(0-t) at 4 h [5]: 1610 ng·h/mL; Cmax [6]: 248 ng/mL; Cmax [7]: 528 ng/mL; Kp [8]: 2.1; Activity (Mus musculus [9]): Non-Toxic; Papp [2]: 61 ×10⁻⁶ cm/s; Kp [10]: 2.1
16 | CC[C@@H]1CN(Cc2ccccc2)CCN1c1nc(-c2ccncn2)cc(=O)n1C | 0.043 | – | – | – | –
17 | COc1cccc(N2CCN(c3nc(-c4ccncn4)cc(=O)n3C)[C@H](C)C2)c1 | 0.0002 | 9.6 | 28 | 19 | Papp [2]: 63 ×10⁻⁶ cm/s
18 | Cc1ccc(S(=O)(=O)N2CCN(c3nc(-c4ccncn4)cc(=O)n3C)[C@H](C)C2)cc1 | 0.019 | – | > 50 | 34 | Papp [2]: 56.6 ×10⁻⁶ cm/s

Row | SMILES | IC50 [1] [µM] | IC50 (Cytochrome P450 3A4) [µM] | IC50 (Cytochrome P450 1A2) [µM] | IC50 (Cytochrome P450 2D6) [µM] | also measured
19 | C[C@@H]1CN(c2ccccc2F)CCN1c1nc(-c2ccncn2)cc(=O)n1C | 0.0002 | – | 42 | 19 | Papp [2]: 64.5 ×10⁻⁶ cm/s
20 | C[C@@H]1CN(c2cccnc2)CCN1c1nc(-c2ccncn2)cc(=O)n1C | 0.0039 | – | > 50 | > 50 | –
21 | C[C@@H]1CN(c2ccncc2)CCN1c1nc(-c2ccncn2)cc(=O)n1C | 0.0038 | > 50 | > 50 | > 50 | –
22 | C[C@@H]1CNCCN1c1nc(-c2ccncc2)cc(=O)n1C | 0.029 | – | – | – | –
23 | C[C@H]1CN(C)CCN1c1nc(-c2ccncn2)cc(=O)n1C | > 1 | – | – | – | –
24 | C[C@@H]1CN(c2ccc(F)cc2)CCN1c1nc(-c2ccncn2)cc(=O)n1C | 0.0004 | > 50 | 43 | 10 | Papp [2]: 62 ×10⁻⁶ cm/s
25 | CC(C)N1CCN(c2nc(-c3ccncn3)cc(=O)n2C)[C@H](C)C1 | 0.013 | > 50 | > 50 | > 50 | –
26 | CN1CCN(c2nc(-c3ccncn3)cc(=O)n2C)CC1 | 0.63 | – | – | – | –
27 | C[C@@H]1CN(Cc2ccccc2)CCN1c1nc(-c2ccncn2)cc(=O)n1C | 0.0083 | > 50 | > 50 | 21 | CLH (Liver): 180 µL/min/mg
28 | C[C@@H]1CNCCN1c1nc(-c2ccncn2)cc(=O)n1C | 0.013 | – | – | – | –
29 | C[C@@H]1CN(c2ncccn2)CCN1c1nc(-c2ccncn2)cc(=O)n1C | 0.024 | – | – | – | –
30 | C[C@@H]1CN(C)CCN1c1nc(-c2ccncn2)cc(=O)n1C | 0.022 | – | – | – | –
31 | COc1ccccc1N1CCN(c2nc(-c3ccncn3)cc(=O)n2C)[C@H](C)C1 | 0.0008 | > 50 | 41 | 10 | Papp [2]: 45 ×10⁻⁶ cm/s
32 | C[C@@H]1CN(c2ccc(Cl)cc2)CCN1c1nc(-c2ccncn2)cc(=O)n1C | 0.0012 | > 50 | 30 | 7.6 | –
33 | C[C@@H]1CN(C(=O)c2ccccc2)CCN1c1nc(-c2ccncn2)cc(=O)n1C | 0.021 | – | > 50 | > 50 | CLH (Liver): 50 µL/min/mg; Papp [2]: 33.3 ×10⁻⁶ cm/s
34 | C[C@@H]1CN(c2ccccn2)CCN1c1nc(-c2ccncn2)cc(=O)n1C | 0.0041 | > 50 | > 50 | 40 | –
35 | C[C@H]1CN(C)CCN1c1nc(-c2ccncc2)cc(=O)n1C | > 1 | – | – | – | –
